# Data: patent US9890171B2, “Aldosterone synthase inhibitors” (Boehringer Ingelheim International GmbH, priority 2014, dated 2018)
# Target: aldosterone synthase (CYP11B2) (Macaca fascicularis, UniProt A0A2K5UPL9)
# Test: aldosterone synthase inhibition assay
# Assay type: biochemical, cynomolgus monkey
# Conditions: cynomolgus adrenal gland mitochondria, 2 μM corticosterone, aldosterone quantified by mass spectrometry
# Protocol: The aldosterone synthase inhibition assay employs cynomolgus adrenal gland mitochondria as the source of aldosterone synthase (CYP11B2). Mitochondria are prepared from frozen cynomolgus monkey adrenal glands according to Method A described in by J. D. McGarry et al. (Biochem. J., 1983, 214, 21-28), with a final resuspension in the AT buffer described in R. Yamaguchi et al. (Cell Death and Differentiation, 2007, 14, 616-624), frozen as aliquots in liquid nitrogen and stored at −80° C. until use.
# Assays are performed in 96-well format in a final volume of 60 μL/well, containing 100 mM potassium phosphate, pH 7.4, 1% (v/v) DMSO, and additionally, 2 μM of corticosterone and […] of mitochondrial protein. Reactions are started by the addition of NADPH to 1 mM and allowed to proceed for 60-90 minutes at 37° C. Reactions are terminated by the addition of […]. One hundred microliters are then transferred to a glass filter plate and centrifuged at 570×g for 5 minutes and the filtrate is collected. Reaction product aldosterone is quantified by mass spectrometry. To determine the assay blank value (0% activity), NADPH is omitted from some reactions.
# Dose dependent inhibition is quantified by the inclusion of compound at various concentrations. Maximum activity (100%) is defined by reactions containing NADPH, but without compound. Activities at each concentration are expressed as a percentage of the maximum activity (y-axis) and plotted against concentration of compound (x-axis) and the concentration corresponding to 50% activity (IC50) determined using the XLFit curve-fitting program using a 4-parameter logistic model.
# aldosterone synthase (CYP11B2), sequence (A0A2K5UPL9 1-503): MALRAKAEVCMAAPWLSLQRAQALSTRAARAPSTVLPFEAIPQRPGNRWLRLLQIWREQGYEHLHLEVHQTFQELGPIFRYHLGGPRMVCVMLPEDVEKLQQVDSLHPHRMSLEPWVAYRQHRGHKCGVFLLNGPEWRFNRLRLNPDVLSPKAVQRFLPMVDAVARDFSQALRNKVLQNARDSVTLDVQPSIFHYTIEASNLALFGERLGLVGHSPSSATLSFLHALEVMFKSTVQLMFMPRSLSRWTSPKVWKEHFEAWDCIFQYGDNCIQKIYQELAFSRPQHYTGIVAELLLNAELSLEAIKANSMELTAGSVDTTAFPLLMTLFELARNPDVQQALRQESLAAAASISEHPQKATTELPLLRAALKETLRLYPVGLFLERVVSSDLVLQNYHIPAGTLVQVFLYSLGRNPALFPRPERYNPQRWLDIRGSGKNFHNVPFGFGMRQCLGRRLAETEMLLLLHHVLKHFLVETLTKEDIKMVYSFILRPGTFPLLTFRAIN
row,IC50 [nM],SMILES
1,83.7,"OC1COCc2c(-c3ccc4c(c3)COCCC4(F)F)cncc21 (single isomer, unassigned) [Compound 148, 8-(5,5-Difluoro-1,3,4,5-tetrahydro-benzo[c]oxepin-8-yl)-3,4-dihydro-1H-pyrano[4,3-c]pyridin-4-ol]"
2,7.6,"Cn1nc(F)c2ccc(-c3cncc4c3COCC4O)cc21 (single isomer, unassigned) [Compound 55, 8-(3-Fluoro-1-methyl-1H-indazol-6-yl)-3,4-dihydro-1H-pyrano[4,3-c]pyridin-4-ol]"
3,54,"OC1COCc2c(-c3ccc4cnccc4c3)cncc21 (single isomer, unassigned) [Compound 30, 8-Isoquinolin-6-yl-3,4-dihydro-1H-pyrano[4,3-c]pyridin-4-ol]"
4,797,"CCS(=O)(=O)NC1COCc2c(-c3ccc4onc(C)c4c3)cncc21 (single isomer, unassigned) [Compound 159, Ethanesulfonic acid [8-(3-methyl-benzo[d]isoxazol-5-yl)-3,4-dihydro-1H-pyrano[4,3-c]pyridin-4-yl]-amide]"
5,2300,"OC1COCc2c(-c3ccc4nncn4c3)cncc21 (single isomer, unassigned) [Compound 100, 8-[1,2,4]Triazolo[4,3-a]pyridin-6-yl-3,4-dihydro-1H-pyrano[4,3-c]pyridin-4-ol]"
6,1500,"Cc1nn(C)c(C)c1-c1cncc2c1COCC2O (single isomer, unassigned) [Compound 26, 8-(1,3,5-Trimethyl-1H-pyrazol-4-yl)-3,4-dihydro-1H-pyrano[4,3-c]pyridin-4-ol]"
7,14,"N#CC1CC=C(c2cncc3c2COCC3O)CC1 (single isomer, unassigned) [Compound 192, 4-(4-Hydroxy-3,4-dihydro-1H-pyrano[4,3-c]pyridin-8-yl)-cyclohex-3-enecarbonitrile]"
8,130,"CCC(=O)NC1COCc2c(-c3ccc4c(c3)CC(=O)N4C)cncc21 (single isomer, unassigned) [Compound 58, N-[8-(1-Methyl-2-oxo-2,3-dihydro-1H-indol-5-yl)-3,4-dihydro-1H-pyrano[4,3-c]pyridin-4-yl]-propionamide]"
9,42.8,"Cn1nc(C#N)c2ccc(-c3cncc4c3COCC4(C)O)cc21 (single isomer, unassigned) [Compound 177, 6-(4-Hydroxy-4-methyl-3,4-dihydro-1H-pyrano[4,3-c]pyridin-8-yl)-1-methyl-1H-indazole-3-carbonitrile]"
10,52,"O=C1CCc2cc(-c3cncc4c3COCC4O)ccc21 (single isomer, unassigned) [Compound 183, 5-(4-Hydroxy-3,4-dihydro-1H-pyrano[4,3-c]pyridin-8-yl)-indan-1-one]"
11,38.9,"Cn1ncc2ccc(-c3cncc4c3C(C)(O)COC4)cc21 (single isomer, unassigned) [Compound 179, 4-Methyl-5-(1-methyl-1H-indazol-6-yl)-3,4-dihydro-1H-pyrano[3,4-c]pyridin-4-ol]"
12,544,"CC(=O)N1Cc2ccc(-c3cncc4c3COCC4O)cc2C1 (single isomer, unassigned) [Compound 109, 1-[5-(4-Hydroxy-3,4-dihydro-1H-pyrano[4,3-c]pyridin-8-yl)-1,3-dihydro-isoindol-2-yl]-ethanone]"
13,64.1,"O=C1Cc2cc(-c3cncc4c3COCC4O)ccc2N1 (single isomer, unassigned) [Compound 52, 5-(4-Hydroxy-3,4-dihydro-1H-pyrano[4,3-c]pyridin-8-yl)-1,3-dihydro-indol-2-one]"
14,85.8,"CCC(=O)NC1COCc2c(-c3ccc4ocnc4c3)cncc21 (single isomer, unassigned) [Compound 56, N-(8-Benzooxazol-5-yl-3,4-dihydro-1H-pyrano[4,3-c]pyridin-4-yl)-propionamide]"
15,238,"OC1COCc2c(-c3cc(Cl)c4cn[nH]c4c3)cncc21 (single isomer, unassigned) [Compound 130, 8-(4-Chloro-1H-indazol-6-yl)-3,4-dihydro-1H-pyrano[4,3-c]pyridin-4-ol]"
16,110,"CCS(=O)(=O)NC1COCc2c(-c3ccc4ncn(C)c4c3)cncc21 (single isomer, unassigned) [Compound 67, Ethanesulfonic acid [8-(3-methyl-3H-benzoimidazol-5-yl)-3,4-dihydro-1H-pyrano[4,3-c]pyridin-4-yl]-amide]"
17,17.4,"OC1COCc2c(-c3ccc4[nH]ccc4c3)cncc21 (single isomer, unassigned) [Compound 48, 8-(1H-Indol-5-yl)-3,4-dihydro-1H-pyrano[4,3-c]pyridin-4-ol]"

row,IC50 [nM],SMILES
1,153,"Cn1ncc2cc(F)c(-c3cncc4c3COCC4O)cc21 (single isomer, unassigned) [Compound 19, 8-(5-Fluoro-1-methyl-1H-indazol-6-yl)-3,4-dihydro-1H-pyrano[4,3-c]pyridin-4-ol]"
2,1300,"OC1COCc2c(-c3cnc4[nH]ccc4c3)cncc21 (single isomer, unassigned) [Compound 27, 8-(1H-Pyrrolo[2,3-b]pyridin-5-yl)-3,4-dihydro-1H-pyrano[4,3-c]pyridin-4-ol]"
3,437,"Cc1nn(C)c(C)c1-c1cncc2c1COCC2O (single isomer, unassigned) [Compound 39, 8-(1,3,5-Trimethyl-1H-pyrazol-4-yl)-3,4-dihydro-1H-pyrano[4,3-c]pyridin-4-ol]"
4,8.1,"Cn1ncc2c(F)cc(-c3cncc4c3COCC4O)cc21 (single isomer, unassigned) [Compound 96, 8-(4-Fluoro-1-methyl-1H-indazol-6-yl)-3,4-dihydro-1H-pyrano[4,3-c]pyridin-4-ol]"
5,18,"Cn1nnc2ccc(-c3cncc4c3COC3(CC3)C4O)cc21 (single isomer, unassigned) [Compound 197, 8-(3-methylbenzotriazol-5-yl)spiro[1,4-dihydropyrano[4,3-c]pyridine-3,1′-cyclopropane]-4-ol]"
6,7.8,"Cn1nc(F)c2ccc(-c3cncc4c3COCC4O)cc21 (single isomer, unassigned) [Compound 15, 8-(3-Fluoro-1-methyl-1H-indazol-6-yl)-3,4-dihydro-1H-pyrano[4,3-c]pyridin-4-ol]"
7,14.5,"Cn1nc(C#N)c2ccc(-c3cncc4c3COCC4O)cc21 (single isomer, unassigned) [Compound 113, 6-(4-Hydroxy-3,4-dihydro-1H-pyrano[4,3-c]pyridin-8-yl)-1-methyl-1H-indazole-3-carbonitrile]"
8,13.9,"Cn1ncc2ccc(-c3cncc4c3COCC4(C)O)cc21 (single isomer, unassigned) [Compound 169, 4-Methyl-8-(1-methyl-1H-indazol-6-yl)-3,4-dihydro-1H-pyrano[4,3-c]pyridin-4-ol]"
9,771,"OC1COCc2c(-c3ccc4c(c3)COCCO4)cncc21 (single isomer, unassigned) [Compound 108, 8-(2,3-Dihydro-5H-benzo[e][1,4]dioxepin-7-yl)-3,4-dihydro-1H-pyrano[4,3-c]pyridin-4-ol]"
10,11.5,"Cn1ncc2c(F)cc(-c3cncc4c3COC3(CC3)C4O)cc21 (single isomer, unassigned) [Compound 92, 8-(4-fluoro-1-methyl-indazol-6-yl)spiro[1,4-dihydropyrano[4,3-c]pyridine-3,1′-cyclopropane]-4-ol]"
11,26.3,"O=C1CCCc2ccc(-c3cncc4c3COCC4O)cc21 (single isomer, unassigned) [Compound 116, 7-(4-Hydroxy-3,4-dihydro-1H-pyrano[4,3-c]pyridin-8-yl)-3,4-dihydro-2H-naphthalen-1-one]"
12,8.5,"Cc1noc2ccc(-c3cncc4c3COCC4O)cc12 (single isomer, unassigned) [Compound 90, 8-(3-Methyl-benzo[d]isoxazol-5-yl)-3,4-dihydro-1H-pyrano[4,3-c]pyridin-4-ol]"
13,21,"Cn1nnc2ccc(-c3cncc4c3COCC4O)cc21 (single isomer, unassigned) [Compound 188, 8-(3-Methyl-3H-benzotriazol-5-yl)-3,4-dihydro-1H-pyrano[4,3-c]pyridin-4-ol]"
14,159,"OC1COCc2c(-c3ccc4c(c3)OCCO4)cncc21 (single isomer, unassigned) [Compound 25, 8-(2,3-Dihydro-benzo[1,4]dioxin-6-yl)-3,4-dihydro-1H-pyrano[4,3-c]pyridin-4-ol]"
15,25.6,"CC(=O)NC1COCc2c(-c3ccc4cnn(C)c4c3)cncc21 (single isomer, unassigned) [Compound 74, N-[8-(1-Methyl-1H-indazol-6-yl)-3,4-dihydro-1H-pyrano[4,3-c]pyridin-4-yl]-acetamide]"
16,85.2,"CCS(=O)(=O)NC1COCc2c(-c3ccc4c(c3)CC(=O)N4C)cncc21 (single isomer, unassigned) [Compound 63, Ethanesulfonic acid [8-(1-methyl-2-oxo-2,3-dihydro-1H-indol-5-yl)-3,4-dihydro-1H-pyrano[4,3-c]pyridin-4-yl]-amide]"
